Laboratory results published in patent publication US12433959B2, “Injectable hydrogels for controlled release of immunomodulatory compounds” (THE BOARD OF TRUSTEES OF THE LELAND STANFORD JUNIOR …, priority 2018, dated 2025).

Assay: Hydrodynamic radius (MALS) and diffusivity of cargo in PBS
Type: physicochemical
Details: for diffusivity value, D: corresponding to RH
Description: Values closer to 1 indicate more similar diffusivities of the OVA and Poly(I:C) (n=3). […] Values closer to 1 indicate that cargo diffusivity is limited by self-diffusion of the hydrogel (n=3).
OVA's hydrodynamic radius (RH) is 3.2 nm, corresponding to a diffusivity value, D, of 76.6 μm^2/s. Poly(I:C)'s was measured to be much larger, with an RH of 34.2 nm, using multi-angle light scattering (MALS), corresponding to a D value of 7.2 μm^2/s. This difference in size results in OVA having an over 10 times greater diffusivity than Poly(I:C) in PBS (FIG. 3C). […] The measured diffusivities for all experiments can be found in FIG. 16. With a standard injection volume in rodents (100 μL) and the release characteristics of PNP hydrogels, these OVA diffusivities correlate to release timeframes of approximately 2 and 3 weeks, respectively. Further, the ratio of OVA to Poly(I:C) diffusivities (DOVA/DPoly(I:C)) was 3.3 in the 1:5 gel, and only 1.4 in the 2:10 gel (FIG. 3C). When comparing the diffusivity of OVA to the self-diffusion of the hydrogel matrix (DOVA/DGel), which was determined by tracking the diffusivity of HPMC-C12 within the hydrogel, the ratio was 6.5 in the 1:5 gel, but only 4.7 in the 2:10 gel, while the ratio of Poly(I:C) to the hydrogel self-diffusion (DPoly(I:C)/DGel) was around 2 for the 1:5 gel and 3.5 for the 2:10 gel (FIG. 3D). […] The diffusion of OVA, however, is more limited by hydrogel self-diffusion in the 2:10 gel and appears to be small enough to diffuse more freely in the 1:5 gel (FIG. 3B). Accordingly, the diffusivity of both OVA and Poly(I:C) is restricted by the self-diffusion of the hydrogel network in the 2:10 gel and are thus similar to one another, enabling sustained co-delivery of the two cargo, despite their large difference in physicochemical properties.

Row | size of Poly(I:C) relative to OVA [times larger] | Molecule | hydrodynamic radius (RH) [nm] | diffusivity value, D (in PBS) [μm^2/s] | diffusivity of OVA relative to Poly(I:C) (in PBS)
1 | 10 | Polyinosinic-polycytidylic acid [Poly(I:C)] | 34.2 | 7.2 | 
2 |  | ovalbumin (protein, UniProt P01012 2-386, looked up, commonly used model antigen) Ovalbumin: GSIGAASMEFCFDVFKELKVHHANENIFYCPIAIMSALAMVYLGAKDSTRTQINKVVRFDKLPGFGDSIEAQCGTSVNVHSSLRDILNQITKPNDVYSFSLASRLYAEERYPILPEYLQCVKELYRGGLEPINFQTAADQARELINSWVESQTNGIIRNVLQPSSVDSQTAMVLVNAIVFKGLWEKAFKDEDTQAMPFRVTEQESKPVQMMYQIGLFRVASMASEKMKILELPFASGTMSMLVLLPDEVSGLEQLESIINFEKLTEWTSSNVMEERKIKVYLPRMKMEEKYNLTSVLMAMGITDVFSSSANLSGISSAESLKISQAVHAAHAEINEAGREVVGSAEAGVDAASVSEEFRADHPFLFCIKHIATNAVLFFGRCVSP | 3.2 | 76.6 | over 10 times greater
